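In this assay, cells in 96-well plates receive the compound at five concentrations for 48 hours. Endpoints are linearly interpolated between the surrounding concentrations. Here, GI50 denotes the concentration required for 50% inhibition of growth.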 Activity calls are given as the source filed them. Rule as the data show it: active = GI50 up to about 1.1 µM and inactive = higher.
Key:
Experiment in all cases: growth of human tumour cells (NCI), 48 h
786-0 = tested on: 786-0
A498 = tested on: A498
A549 = tested on: A549
ACHN = tested on: ACHN
CAKI-1 = tested on: CAKI-1
CCRF-CEM = tested on: CCRF-CEM
COLO 205 = tested on: COLO 205
DLD-1 = tested on: DLD-1
DMS-114 = tested on: DMS-114
DMS-273 = tested on: DMS-273
EKVX = tested on: EKVX
HCC 2998 = tested on: HCC 2998
HCT-116 = tested on: HCT-116
HCT-15 = tested on: HCT-15
HL-60 = tested on: HL-60
HOP-18 = tested on: HOP-18
HOP-62 = tested on: HOP-62
HOP-92 = tested on: HOP-92
HT-29 = tested on: HT-29
IGROV-1 = tested on: IGROV-1
K562 = tested on: K562
KM-20L2 = tested on: KM-20L2
KM12 = tested on: KM12
LOX IMVI = tested on: LOX IMVI
M14 = tested on: M14
M19-MEL = tested on: M19-MEL
MOLT-4 = tested on: MOLT-4
Malme-3M = tested on: Malme-3M
NCI-H226 = tested on: NCI-H226
NCI-H23 = tested on: NCI-H23
NCI-H460 = tested on: NCI-H460
NCI-H522 = tested on: NCI-H522
OVCAR-3 = tested on: OVCAR-3
OVCAR-4 = tested on: OVCAR-4
OVCAR-5 = tested on: OVCAR-5
OVCAR-8 = tested on: OVCAR-8
RXF 393 = tested on: RXF 393
RXF 631 = tested on: RXF 631
SF-268 = tested on: SF-268
SF-295 = tested on: SF-295
SF-539 = tested on: SF-539
SK-MEL-28 = tested on: SK-MEL-28
SK-MEL-2 = tested on: SK-MEL-2
SK-MEL-5 = tested on: SK-MEL-5
SK-OV-3 = tested on: SK-OV-3
SN12C = tested on: SN12C
SNB-19 = tested on: SNB-19
SNB-75 = tested on: SNB-75
SR = tested on: SR
SW-620 = tested on: SW-620
TK-10 = tested on: TK-10
U-251 = tested on: U-251
UACC-257 = tested on: UACC-257
UACC-62 = tested on: UACC-62
UO-31 = tested on: UO-31
BT-549 = tested on: BT-549
DU-145 = tested on: DU-145
Hs-578T = tested on: Hs-578T
MCF7 = tested on: MCF7
MDA-MB-231 = tested on: MDA-MB-231
MDA-MB-435 = tested on: MDA-MB-435
MDA-N = tested on: MDA-N
NCI/ADR-RES = tested on: NCI/ADR-RES
PC-3 = tested on: PC-3
RPMI-8226 = tested on: RPMI-8226
SNB-78 = tested on: SNB-78
T47D = tested on: T47D
XF498 = tested on: XF498

With `Cc1cc(S(=O)(=O)O)c(NC(=O)C(=O)Cc2cc(=O)oc3cc(O)ccc23)cc1Cl` the GI50 (786-0) was > 100000 nM (inactive), the GI50 (A498) was > 100000 nM (inactive) and the GI50 (A549) was > 100000 nM (inactive). The GI50 (ACHN) was > 100000 nM (inactive), the GI50 (CAKI-1) was > 100000 nM (inactive) and the GI50 (CCRF-CEM) was > 100000 nM (inactive). For the same compound, the GI50 (COLO 205) was > 100000 nM (inactive), the GI50 (DLD-1) was > 100000 nM (inactive) and the GI50 (DMS-114) was > 100000 nM (inactive). For the same compound, the GI50 (DMS-273) was > 100000 nM (inactive), the GI50 (EKVX) was > 100000 nM (inactive) and the GI50 (HCC 2998) was > 100000 nM (inactive). The GI50 (HCT-116) was > 100000 nM (inactive), the GI50 (HCT-15) was greater than 100000 nM and the GI50 (HL-60) was > 100000 nM (inactive). The GI50 (HOP-18) was > 100000 nM (inactive), the GI50 (HOP-62) was > 100000 nM (inactive) and the GI50 (HOP-92) was > 100000 nM (inactive). For the same compound, the GI50 (HT-29) was > 100000 nM (inactive), the GI50 (IGROV-1) was > 100000 nM (inactive) and the GI50 (K562) was > 100000 nM (inactive). For the same compound, the GI50 (KM-20L2) was > 100000 nM (inactive), the GI50 (KM12) was > 100000 nM (inactive) and the GI50 (LOX IMVI) was > 100000 nM (inactive). For the same compound, the GI50 (M14) was > 100000 nM (inactive), the GI50 (M19-MEL) was > 100000 nM (inactive) and the GI50 (MOLT-4) was > 100000 nM (inactive). The GI50 (Malme-3M) was > 100000 nM (inactive), the GI50 (NCI-H226) was > 100000 nM (inactive) and the GI50 (NCI-H23) was > 100000 nM (inactive). The GI50 (NCI-H460) was > 100000 nM (inactive), the GI50 (NCI-H522) was > 100000 nM (inactive) and the GI50 (OVCAR-3) was > 100000 nM (inactive). For the same compound, the GI50 (OVCAR-4) was > 100000 nM (inactive), the GI50 (OVCAR-5) was > 100000 nM (inactive) and the GI50 (OVCAR-8) was > 100000 nM (inactive). For the same compound, the GI50 (RXF 393) was > 100000 nM (inactive), the GI50 (RXF 631) was > 100000 nM (inactive) and the GI50 (SF-268) was > 100000 nM (inactive). The GI50 (SF-295) was > 100000 nM (inactive), the GI50 (SF-539) was > 100000 nM (inactive) and the GI50 (SK-MEL-28) was > 100000 nM (inactive). For the same compound, the GI50 (SK-MEL-2) was > 100000 nM (inactive), the GI50 (SK-MEL-5) was > 100000 nM (inactive) and the GI50 (SK-OV-3) was > 100000 nM (inactive). The GI50 (SN12C) was > 100000 nM (inactive), the GI50 (SNB-19) was > 100000 nM (inactive) and the GI50 (SNB-75) was > 100000 nM (inactive). The GI50 (SR) was > 100000 nM (inactive), the GI50 (SW-620) was > 100000 nM (inactive) and the GI50 (TK-10) was > 100000 nM (inactive). The GI50 (U-251) was > 100000 nM (inactive), the GI50 (UACC-257) was > 100000 nM (inactive) and the GI50 (UACC-62) was > 100000 nM (inactive). The GI50 (UO-31) was > 100000 nM (inactive).
For `COc1cccc2c1C(=O)c1c(O)c3c(c(O)c1C2=O)C[C@@](O)(/C(C)=N/NC(=O)c1ccccc1)C[C@@H]3OC1CC(N)C(O)C(C)O1` (some centres not stated), the GI50 (786-0) was 56.2 nM (active), the GI50 (A498) was 510 nM (active) and the GI50 (A549) was 206 nM (active). For the same compound, the GI50 (ACHN) was 80.2 nM (active), the GI50 (BT-549) was 304 nM (active) and the GI50 (CAKI-1) was 141 nM (active). The GI50 (CCRF-CEM) was 59.2 nM (active), the GI50 (COLO 205) was 474 nM (active) and the GI50 (DLD-1) was 1690 nM (inactive). The GI50 (DMS-114) was 202 nM (active), the GI50 (DMS-273) was 157 nM (active) and the GI50 (DU-145) was 135 nM (active). For the same compound, the GI50 (EKVX) was 693 nM (active), the GI50 (HCC 2998) was 481 nM (active) and the GI50 (HCT-116) was 190 nM (active). The GI50 (HCT-15) was 1840 nM, the GI50 (HL-60) was 60.4 nM (active) and the GI50 (HOP-18) was 454 nM (active). For the same compound, the GI50 (HOP-62) was 122 nM (active), the GI50 (HOP-92) was 114 nM (active) and the GI50 (HT-29) was 589 nM (active). For the same compound, the GI50 (Hs-578T) was 256 nM (active), the GI50 (IGROV-1) was 262 nM (active) and the GI50 (K562) was 233 nM (active). The GI50 (KM-20L2) was 807 nM (active), the GI50 (KM12) was 392 nM (active) and the GI50 (LOX IMVI) was 93.5 nM (active). For the same compound, the GI50 (M14) was 203 nM (active), the GI50 (M19-MEL) was 302 nM (active) and the GI50 (MCF7) was 46.7 nM (active). For the same compound, the GI50 (MDA-MB-231) was 490 nM (active), the GI50 (MDA-MB-435) was 362 nM (active) and the GI50 (MDA-N) was 308 nM (active). The GI50 (MOLT-4) was 32.4 nM (active), the GI50 (Malme-3M) was 213 nM (active) and the GI50 (NCI-H226) was 104 nM (active). The GI50 (NCI-H23) was 201 nM (active), the GI50 (NCI-H460) was 35.5 nM (active) and the GI50 (NCI-H522) was 190 nM (active). The GI50 (NCI/ADR-RES) was 16300 nM (inactive), the GI50 (OVCAR-3) was 624 nM (active) and the GI50 (OVCAR-4) was 1170 nM (inactive). For the same compound, the GI50 (OVCAR-5) was 643 nM (active), the GI50 (OVCAR-8) was 283 nM (active) and the GI50 (PC-3) was 171 nM (active). The GI50 (RPMI-8226) was 137 nM (active), the GI50 (RXF 393) was 330 nM (active) and the GI50 (SF-268) was 290 nM (active). The GI50 (SF-295) was 195 nM (active), the GI50 (SF-539) was 261 nM (active) and the GI50 (SK-MEL-28) was 973 nM (active). The GI50 (SK-MEL-2) was 505 nM (active), the GI50 (SK-MEL-5) was 161 nM (active) and the GI50 (SK-OV-3) was 583 nM (active). For the same compound, the GI50 (SN12C) was 155 nM (active), the GI50 (SNB-19) was 179 nM (active) and the GI50 (SNB-75) was 373 nM (active). For the same compound, the GI50 (SNB-78) was 658 nM (active), the GI50 (SR) was 19.9 nM (active) and the GI50 (SW-620) was 136 nM (active). The GI50 (T47D) was 159 nM (active), the GI50 (TK-10) was 530 nM (active) and the GI50 (U-251) was 147 nM (active). The GI50 (UACC-257) was 594 nM (active), the GI50 (UACC-62) was 242 nM (active) and the GI50 (UO-31) was 1770 nM (inactive). The GI50 (XF498) was 80.3 nM (active).
